# According to BindingDB's records for doi:10.1021/jm1001698 (Institute of Health Sciences, 2010):
# pIC50: −log10 of the molar value.
# Target: Bcl-xL (Homo sapiens)
# Test: Displacement of FITC-labeled Bak-BH3 peptide from Bcl-XL after 1 hr by fluorescence polarization assay
smiles,measurement,value
"C=c1c(-c2c(O)c3c(C=N[C@@H]4C(=O)N5[C@@H]4SC(C)(C)[C@@H]5C(=O)O)c(O)c(O)c(=C(C)C)c3c(O)c2=C)c(O)c2c(C=N[C@@H]3C(=O)N4[C@@H]3SC(C)(C)[C@@H]4C(=O)O)c(O)c(O)c(=C(C)C)c2c1O [sodium(2S,2'S,5R,5'R,6R,6'R)-6,6'-((1E,1'E)-(6,6',7,7'-tetrahydroxy-5,5'-diisopropyl-3,3'-dimethyl-1,1',4,4'-tetraoxo-1,1',4,4'-tetrahydro-2,2'-binaphthyl-8,8'-diyl)bis(methan-1-yl-1-ylidene)bis(azan-1-yl-1-ylidene))bis(3,3-dimethyl-7-oxo-4-thia-1-azabicyclo[3.2.0]heptane-2-carboxylate)]",pIC50,5.75
